Structures can show the parent of a compound that is named as a salt.
Columns and labels:
[1] = In-vitro drug release by dialysis against PBS pH 7.4, HPLC; format: physicochemical; conditions: within 48 hours, dialysis (MWCO 8-10 kDal) against PBS pH 7.4
Experimental: Drug release studies were performed by dialysing a dorzolamide HCl solution and LipoDH prepared as described above in EXAMPLE 2 and EXAMPLE 3, respectively, against PBS at a pH of 7.4 and measuring the amount of dorzolamide released by HPLC.
Briefly, 1 mL of dorzolamide HCl solution and 1 ml LipoDH were each loaded into a dialysis tube (molecular weight cut-off of 8-10 kDal) before placing the tube into 40 mL of PBS in a 50 mL tube. The PBS in the tubes was sampled at 1, 4, 7, 24, 48, 72 and 96 hours at which time the dorzolamide concentration was measured by HPLC.
The cumulative drug release percentage vs release time for both dorzolamide HCl solution (unencapsulated) and LipoDH (encapsulated) was calculated and plotted. […] Without a doubt, encapsulation of dorzolamide in a liposome results in a formulation capable of sustained drug delivery.

[2] = Stability of LipoDH and dorzolamide HCl aqueous solution on storage at 5° C.; format: physicochemical
Experimental: The LipoDH formulation was described above in EXAMPLE 2. A dorzolamide HCl aqueous solution was prepared by dissolving 200 mg dorzolamide HCl in 20 mL of PBS. The dorzolamide content of both formulations was analyzed after storing them at 5° C. for 7 and 14 days. The temperature was monitored and recorded continuously to ensure stable temperature conditions.

- cumulative drug release percentage [1]: 80%
- degradation percentage ([2]; at 7 days, storage at 5° C.): 57.9%
- degradation percentage, Start of Stability Test ([2]; start of stability test): 0.0%
- drug content, Start of Stability Test ([2]; start of stability test): 9.5 mg/mL
- degradation percentage, 7 Days Incubation ([2]; stored at 5° C. for 7 days): 57.9%
- drug content, 7 Days Incubation ([2]; stored at 5° C. for 7 days): 4.0 mg/mL
- degradation percentage, 14 Days Incubation ([2]; stored at 5° C. for 14 days): 58.9%
- drug content, 14 Days Incubation ([2]; stored at 5° C. for 14 days): 3.9 mg/mL
Structure (SMILES): CCN[C@H]1C[C@H](C)S(=O)(=O)c2sc(S(N)(=O)=O)cc21 [dorzolamide HCl]

Reference: patent US20170042809A1, “STABLE LIPOSOMAL FORMULATIONS OF CARBONIC ANHYDRASE INHIBITORS FOR OCULAR DRUG DELIVERY” (Peregrine Ophthalmic PTE LTD., priority 2015, published 2017)
